Among the data in PubChem BioAssay (NCI) are TGI values, retold here.

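1) Cells in 96-well plates. 2) Compound, 48 h, 5 concentrations. 3) Linear interpolation between surrounding doses. 4) Unreached endpoint = highest concentration. TGI: total growth inhibition.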 A value given as a limit tells only on which side of the number the result lay.

Among the test systems are HS 578T breast; K-562 leukemia; NCI-H226 lung; OVCAR-3 ovarian.
Assay in all cases: NCI anticancer screen, dose series, 48 h

Consider `N/N=C(\C(=O)Nc1ccc([N+](=O)[O-])cc1)C(C1=Nc2cc([N+](=O)[O-])ccc2NC1)[N+](=O)[O-]` (stereo not given), for which the TGI with HS 578T breast, with K-562 leukemia, with NCI-H226 lung and in the assay with OVCAR-3 ovarian was over 100 µM throughout.
With `COc1cccc(-n2c(N)c(-c3nc4cc(C(F)(F)F)ccc4s3)c3ccc([N+](=O)[O-])cc3c2=O)c1`, the TGI in the assay on K-562 leukemia, with NCI-H226 lung and in the assay with OVCAR-3 ovarian was over 100 µM throughout.
In the case of `Cc1nc2c(ncn2CCO)c(=O)[nH]1`, the TGI in the assay with HS 578T breast, with K-562 leukemia, in the assay with NCI-H226 lung and in the assay on OVCAR-3 ovarian was over 100 µM throughout.
As for `CC(NC(=O)C(N)CC(=O)O)NC(=O)N1CCCC1` (stereo not given), the TGI with HS 578T breast, in the assay with K-562 leukemia, in the assay with NCI-H226 lung and in the assay on OVCAR-3 ovarian was over 100 µM in each case.
In the case of `O=C1NN(c2ccccc2)C(=O)C2C3c4ccccc4C(c4ccccc43)C12` (stereo not given), the TGI in the assay with HS 578T breast, in the assay with K-562 leukemia, with NCI-H226 lung and in the assay on OVCAR-3 ovarian was over 100 µM throughout.
Regarding `C[C@]12CCC(=O)C=C1CC[C@@H]1C2CC[C@]2(C)Nc3c(ncn3-c3ccc(F)cc3)CC12` (stereo not given in full), the TGI in the assay with HS 578T breast was 71 µM; with K-562 leukemia it was 69 µM; in the assay with NCI-H226 lung, over 100 µM; in the assay with OVCAR-3 ovarian it was over 100 µM.
Take `Cn1cnc([N+](=O)[O-])c1Sc1nc(N)nc2c1ncn2Cc1ccccc1`: the TGI was 86.5 µM with HS 578T breast, over 100 µM with K-562 leukemia, 60.2 µM in the assay with NCI-H226 lung and 9.97 µM in the assay with OVCAR-3 ovarian.
As for `COC(=O)c1scc(N)c1-n1ccc(=O)[nH]c1=O`, the TGI with HS 578T breast, in the assay on K-562 leukemia and in the assay on NCI-H226 lung was over 100 µM in each case.
For the molecule `CC(=O)O[C@H]1[C@@H](N2CCN(C)CC2)C[C@H]2[C@@H]3CC=C4C[C@@H](N5CCCC5)CC[C@]4(C)[C@H]3CC[C@@]21C`, the TGI in the assay with HS 578T breast was over 100 µM; with K-562 leukemia, 33 µM; in the assay on NCI-H226 lung, over 100 µM; in the assay with OVCAR-3 ovarian, over 100 µM.
Consider `CCCCOC(=O)C1CN2C(=NC1(C(F)(F)F)C(F)(F)F)Sc1ccccc12` (stereo not given), for which the TGI in the assay with HS 578T breast, in the assay with K-562 leukemia, with NCI-H226 lung and in the assay on OVCAR-3 ovarian was over 100 µM throughout.
As to `CC1(C)O[C@@H]2[C@@H]3OC(=O)C[C@@H]3[C@@H](COCc3ccccc3)[C@@H]2O1`, the TGI in the assay with HS 578T breast, in the assay with K-562 leukemia, with NCI-H226 lung and in the assay with OVCAR-3 ovarian was over 100 µM each time.
For `Cc1cc2[nH]c3c(C#N)c(-c4ccccc4)c(CN4CCOCC4)c(=O)n3c2cc1C`, the TGI in the assay with NCI-H226 lung and in the assay on OVCAR-3 ovarian was over 100 µM throughout.
With `CC1Cc2cc(O)ccc2C2[C@@H]1C1CC[C@H](O)[C@@]1(C)C[C@@H]2O[N+](=O)[O-]` (stereo not given in full), the TGI is 22.3 µM in the assay with HS 578T breast, 49.4 µM with K-562 leukemia, over 100 µM in the assay on NCI-H226 lung and over 84.1 µM with OVCAR-3 ovarian.
For `CC1(C)C2CCC1(CC(=O)O)C(Cl)C2` (stereo not given), in that order: over 100 µM, over 100 µM, over 100 µM and over 100 µM.
In the case of `CN1CCN(c2ccc(-n3cc(C(=O)O)c(=O)c4cc(F)c(N5CCN(C)CC5)cc43)nc2)CC1`, the TGI with HS 578T breast, with K-562 leukemia, with NCI-H226 lung and in the assay on OVCAR-3 ovarian was over 100 µM throughout.
Consider `C=C(C(=O)O)[C@@H]1C[C@@H]2O[C@H]1CC(C)=CCC/C(C)=C/CC[C@@]2(C)O`, for which the TGI in the assay on HS 578T breast, in the assay on K-562 leukemia, with NCI-H226 lung and with OVCAR-3 ovarian was over 100 µM throughout.
In the case of `OCSc1nn(CO)c(=S)s1`, the TGI with HS 578T breast is 42.4 µM; in the assay on K-562 leukemia, 43.4 µM; in the assay with NCI-H226 lung, 92.9 µM; in the assay with OVCAR-3 ovarian it was 48.4 µM.
For `COC(=O)[C@@H]1C[C@]2(CC=C(C)C)c3ccccc3N(S(=O)(=O)c3ccccc3)[C@@H]2N1C(=O)OC`, in that order: 66.9 µM, over 100 µM, 89.1 µM and over 100 µM.
For `CCOC(=O)c1cc(-c2ccc(Cl)cc2)c([N+](=O)[O-])n1C`, in that order: over 10 µM, over 10 µM, over 10 µM and over 10 µM.
Regarding `COC(=O)CCC(=O)c1ccc2c(c1)CC1(C2)Cc2ccc3c(c2C1)CCCC3=O` (stereo not given), the TGI in the assay with HS 578T breast was over 100 µM; in the assay on K-562 leukemia, 9.44 µM; with NCI-H226 lung, 85.6 µM; in the assay with OVCAR-3 ovarian, 47.7 µM.
Take `CC(C)=CCC[C@H](C)[C@H]1CC[C@@H](C)c2cc(O)c(C)cc21`: the TGI in the assay with HS 578T breast amounted to 37.8 µM; in the assay with K-562 leukemia, 46.8 µM; in the assay with NCI-H226 lung, 33.3 µM; in the assay on OVCAR-3 ovarian it was 35.3 µM.
On to `O=C(/C(=C/c1cccs1)c1ccccc1)c1ccccc1`, for which the TGI in the assay with HS 578T breast, in the assay with K-562 leukemia, with NCI-H226 lung and in the assay on OVCAR-3 ovarian was over 100 µM throughout.
`CCOP(=O)(OCC)/C(C#N)=C/c1c(C)[nH]c2ccccc12`: the TGI in the assay with HS 578T breast, in the assay on K-562 leukemia, in the assay on NCI-H226 lung and in the assay on OVCAR-3 ovarian was over 100 µM throughout.
`CCOC1SC(SC)=NN1C(=O)C(OC(C)=O)C(OC(C)=O)C(OC(C)=O)C(OC(C)=O)C(=O)N1N=C(SC)SC1OCC` (stereo not given): the TGI in the assay with HS 578T breast is 96.2 µM; in the assay with K-562 leukemia, over 100 µM; with NCI-H226 lung, over 100 µM; in the assay with OVCAR-3 ovarian, over 100 µM.
Turning to `NC(CCCCNC(=O)C(Cc1ccccc1)NC(=O)OCc1ccccc1)C(=O)NC(CCCCNC(=O)C(Cc1ccccc1)NC(=O)OCc1ccccc1)C(=O)NC(CCCCNC(=O)C(Cc1ccccc1)NC(=O)OCc1ccccc1)C(=O)NC(CCCCNC(=O)C(Cc1ccccc1)NC(=O)OCc1ccccc1)C(=O)NC(CCCCNC(=O)C(Cc1ccccc1)NC(=O)OCc1ccccc1)C(=O)NC(CCCCNC(=O)C(Cc1ccccc1)NC(=O)OCc1ccccc1)C(=O)O` (stereo not given), the TGI in the assay with K-562 leukemia, with NCI-H226 lung and in the assay with OVCAR-3 ovarian was over 100 µM in each case.
